Data taken from US10449137B2, “Antimicrobial composition” (Conopco, Inc., priority 2015, dated 2019).

Test system: E. coli ATCC 10536
Test: In-vitro micro-dilution assay for determination of antimicrobial activity
Assay type: cell-based
Settings: for Average Residual Log (CFU/mL): E. coli ATCC 10536, 10^6 cells/mL in 10 mM sodium phosphate buffer, contact time 4 hours, about 37° C., plated on MacConkey agar; for antimicrobial action (in words): low concentration, E. coli ATCC 10536, 4 hours contact
Method: In-vitro Micro-dilution Assay for Determination of Antimicrobial Activity of Different Compositions:
The organism used for the assay was E. coli ATCC 10536
The procedure that was followed is given below: • a) First, the bacterial suspension corresponding to 10^6 cells/mL was prepared in 10 mM Sodium phosphate buffer. For this purpose the sodium phosphate buffer was prepared as follows: • To prepare the sodium phosphate buffer two different solutions were made. The first solution was prepared by dissolving 27.6 g of NaH2PO4.H20 (MW=138) in 500 mL of MilliQ water and made up the volume to 1 L with MilliQ water. This was then autoclaved and stored at room temperature. The molarity of the resultant solution was 0.2. • Then, the second solution was prepared by dissolving 53.62 g of […] (MW=268.1) in 500 mL of MilliQ water and made up the volume to 1 L with MilliQ water. This was then autoclaved and stored at room temperature. The molarity of the resultant solution was 0.2. • 19 mL of the first solution and 81 mL of the second solution was added together followed by the addition of 100 mL of MilliQ water to obtain a 200 mL solution of sodium phosphate buffer of molarity 0.1 with pH 7.4. • The required level of molarity that was need for the experiments were obtained by diluting the above solution. • b) Then 135 μL/well of the above bacterial suspension was taken and plated in a 96 well microtiter plate. • c) After that 15 μL of 100 mM sodium phosphate buffer was added in all well for all the samples. • d) Then the required test compositions were added in the well for the test. • e) The reaction volume for all the test samples was 300 μL. This reaction volume was adjusted by adding water. • f) The following samples were tested: • Example A: Only Culture • Example B: 1% niacinamide • Example C: 0.01% thymol • Example D: 0.01% terpineol • Example E: 0.01% thymol+0.01% terpineol • Example F: 0.01% Farnesol • Example G: 0.02% Farnesol • Example H: 1% niacinamide+0.01% Farnesol • Example I: 1% niacinamide+0.02% Farnesol • Example 1: 1% niacinamide+0.01% thymol+0.01% terpineol • Example 2: 1% niacinamide+1 μg/mL of LL-37+0.01% thymol+0.01% terpineol • For the above purpose, Thymol was procured from Nishant Aromas, India (Purity: 99%), Terpineol was also procured from Nishant Aromas, India (Purity: 99%), LL-37 (AMP) was procured from Sigma (Cat no: 94261),Niacinamide was procured from Veer Chemicals (Purity: 99%) and Farnesol was procured from Sigma-Aldrich (Cat. No: F203). • g) The contact time for the above test (for all the samples) was 4 hours and the temperature was maintained at about 37° C. • h) After the above contact time, the culture was serially diluted and plated on MacConkey Agar Medium (from Difco) and left it for 24 hours. After that, the residual colonies were counted to determine the bacterial kill/Residual Log.

NC(=O)c1cccnc1 [Example B, niacinamide]
Average Residual Log (CFU/mL): 6.42 Log (CFU/mL)

Cc1ccc(C(C)C)c(O)c1 [Example C, thymol]
Average Residual Log (CFU/mL): 6.35 Log (CFU/mL) | antimicrobial action (in words): not effective

CC(C)=CCCC(C)=CCCC(C)=CCO [Example F, Farnesol]
Average Residual Log (CFU/mL): 6.40 Log (CFU/mL)

CC(C)=CCCC(C)=CCCC(C)=CCO [Example G, Farnesol]
Average Residual Log (CFU/mL): 6.35 Log (CFU/mL)

terpineol [Example D]
Average Residual Log (CFU/mL): 6.45 Log (CFU/mL) | antimicrobial action (in words): not effective
